IC50 data for 24 compounds are collected here from US7211576B2, “Diaminothiazoles” (Hoffmann-La Roche Inc., priority 2004, dated 2007).

Like-named read-outs stand apart in the source and are kept apart here.

The target in one test is human cyclin D1-CDK4 (Homo sapiens, UniProt P11802). Put plainly: FlashPlate kinase assay, cyclin D1-CDK4. It counts as biochemical. As to the method: To determine inhibition of Cdk4, Cdk2 and Cdk1 activity, kinase assays were conducted using FlashPlate™ assays (NEN™-Life Science Products). FlashPlate assays were performed using recombinant human cyclin B-CDK1, human cyclin E-CDK2 or human cyclin D1-CDK4 complexes. GST-cyclinE (GST-cycE), CDK2, GST-cyclinB (GST-cycB), CDK1, GST-CDK4 and cyclin D1 (cycD1) cDNA clones in baculovirus vectors were provided by Dr. W. Harper at the Baylor College of Medicine, Houston, Tex.
(§1) The expression of the 62Kd protein was under the control of an IPTG inducible promoter in an M15 E. coli strain. Cells were lysed by sonication and purification was carried out by binding lysates at pH 8.0 to a Ni-chelated agarose column pretreated with 1 mM imidazole. The resin was then washed several times with incrementally decreasing pH buffers to pH 6.0, and eluted with 500 mM imidazole. Eluted protein was dialysed against 20 mM HEPES pH 7.5, 30% glycerol, 200 mM NaCl, and 1 mM DTT. Purified Rb fusion protein stocks were quantitated for protein concentration, aliquoted, and stored at −70° C.
(§2) For all three kinase assays reported herein, 96-well FlashPlates were coated with Rb protein at 10 μg/ml, using 100 μl per well. Plates were incubated at 4° C. overnight or at room temperature for 3 hours on a shaker. To control for nonspecific phosphorylation, one row of wells was coated with 100 μl/well coating buffer (20 mM HEPES, 0.2 M NaCl). Plates were then washed twice with wash buffer (0.01% Tween 20 in phosphate-buffered saline). Compounds to be tested (“test compounds”) were added to the wells at 5× final concentration. Reactions were initiated by immediate addition of 40 μl reaction mix (25 mM HEPES, 20 mM MgCl2, 0.002% Tween 20, 2 mM DTT, 1 μM ATP, 4 nM ^33P-ATP) and a sufficient amount of enzyme to give counts that were at least 10-fold above background. Plates were incubated at room temperature on a shaker for 30 minutes. Plates were washed four times with the wash buffer, sealed, and counted on the TopCount scintillation counter (Packard Instrument Co., Downers Grove, Ill.]. The percent inhibition of Rb phosphorylation, which is a measure of the inhibition of CDK activity, was determined according to the following formula:
[formula] where “test compound” refers to the average counts per minute of the test duplicates, “nonspecific” refers to the average counts per minute when no CyclinD/Cdk4, etc., was added, and “total” refers to the average counts per minute when no compound was added.

The target of a further test is human cyclin B-CDK1 (Homo sapiens, UniProt P06493). As to the kind of experiment: FlashPlate kinase assay, cyclin B-CDK1. As to conditions: Rb protein substrate, 1 μM ATP, 33P-ATP, 30 minutes room temperature. In kind it is biochemical. As to the method:
To determine inhibition of Cdk4, Cdk2 and Cdk1 activity, kinase assays were conducted using FlashPlate™ assays (NEN™-Life Science Products). FlashPlate assays were performed using recombinant human cyclin B-CDK1, human cyclin E-CDK2 or human cyclin D1-CDK4 complexes. GST-cyclinE (GST-cycE), CDK2, GST-cyclinB (GST-cycB), CDK1, GST-CDK4 and cyclin D1 (cycD1) cDNA clones in baculovirus vectors were provided by Dr. W. Harper at the Baylor College of Medicine, Houston, Tex. Proteins were co-expressed in High Five™ insect cells and the complex was purified on glutathione Sepharose resin (Pharmacia, Piscataway, N.J.) as previously described (Harper, J. W. et al. Cell 1993, 75, 805–816). A 6×-Histidine tagged truncated form of retinoblastoma (Rb) protein (amino acid 386–928) was used as the substrate for the cycD1-CDK4, cycB-CDK1 and the cycE-CDK2 assays (the expression plasmid was provided by Dr. Veronica Sullivan, Department of Molecular Virology, Roche Research Centre, Welwyn Garden City, United Kingdom). The Rb protein is a natural substrate for phosphorylation by CDK4, CDK2 and CDK1 (see Herwig and Strauss Eur. J. Biochem. Vol. 246 (1997) pp. 581–601 and the references cited therein).
as §1, §2
[formula] where “test compound” refers to the average counts per minute of the test duplicates, “nonspecific” refers to the average counts per minute when no CyclinD/Cdk4, etc., was added, and “total” refers to the average counts per minute when no compound was added. The IC50 value is the concentration of test compound that reduces by 50% the protein-kinase induced incorporation of the radiolabel under the test conditions described.

[1] abbreviates: Rb protein substrate, 1 μM ATP, 33P-ATP, 30 minutes room temperature, read-out: CDK4 IC50.

Sequence of human cyclin B-CDK1 (P06493 whole entry): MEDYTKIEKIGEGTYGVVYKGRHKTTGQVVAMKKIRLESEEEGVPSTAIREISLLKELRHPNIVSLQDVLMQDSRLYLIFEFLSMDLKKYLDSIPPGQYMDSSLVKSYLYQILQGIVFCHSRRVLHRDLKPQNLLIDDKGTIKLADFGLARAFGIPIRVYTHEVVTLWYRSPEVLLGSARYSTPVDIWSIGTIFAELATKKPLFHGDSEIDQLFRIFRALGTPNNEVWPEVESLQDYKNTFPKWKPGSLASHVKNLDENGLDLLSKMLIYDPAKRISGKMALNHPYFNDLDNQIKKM
Sequence of human cyclin B-CDK1 (P14635 whole entry partner): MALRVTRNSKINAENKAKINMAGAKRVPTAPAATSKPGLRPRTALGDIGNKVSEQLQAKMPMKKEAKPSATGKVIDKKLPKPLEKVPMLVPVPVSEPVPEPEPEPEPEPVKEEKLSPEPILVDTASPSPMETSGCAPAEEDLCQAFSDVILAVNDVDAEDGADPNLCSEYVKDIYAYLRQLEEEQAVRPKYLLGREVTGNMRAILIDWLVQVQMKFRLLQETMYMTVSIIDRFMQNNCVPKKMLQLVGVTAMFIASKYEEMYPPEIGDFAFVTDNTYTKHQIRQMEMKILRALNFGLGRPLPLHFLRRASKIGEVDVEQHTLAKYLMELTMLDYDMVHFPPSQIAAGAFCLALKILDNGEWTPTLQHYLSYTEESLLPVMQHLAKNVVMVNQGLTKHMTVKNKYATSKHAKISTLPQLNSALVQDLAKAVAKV
Sequence of human cyclin D1-CDK4 (P11802 whole entry): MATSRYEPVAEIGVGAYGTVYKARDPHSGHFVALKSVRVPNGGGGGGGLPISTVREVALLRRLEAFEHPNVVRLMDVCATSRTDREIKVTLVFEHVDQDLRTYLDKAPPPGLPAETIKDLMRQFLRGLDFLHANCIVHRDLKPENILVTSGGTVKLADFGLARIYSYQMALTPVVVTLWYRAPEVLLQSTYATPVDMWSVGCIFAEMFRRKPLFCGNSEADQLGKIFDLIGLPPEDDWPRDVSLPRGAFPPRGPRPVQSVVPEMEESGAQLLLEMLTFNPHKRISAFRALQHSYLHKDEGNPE
Sequence of human cyclin D1-CDK4 (P24385 whole entry partner): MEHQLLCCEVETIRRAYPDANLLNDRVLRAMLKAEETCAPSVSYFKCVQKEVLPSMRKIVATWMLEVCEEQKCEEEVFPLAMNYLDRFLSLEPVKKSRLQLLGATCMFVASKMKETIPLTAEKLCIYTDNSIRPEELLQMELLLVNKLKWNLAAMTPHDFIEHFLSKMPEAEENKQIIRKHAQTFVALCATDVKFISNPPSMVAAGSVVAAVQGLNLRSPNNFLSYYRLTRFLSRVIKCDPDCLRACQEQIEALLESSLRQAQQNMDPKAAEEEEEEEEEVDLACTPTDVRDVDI

As for `Nc1nc(Nc2ccc(N3CCC(N4CCCCC4)CC3)cc2)sc1C(=O)c1ccc(C(=O)O)cc1` [Example 63], on human cyclin D1-CDK4 (setting [1]), the IC50 was determined as 320 nM. For `CN(C)C1CCN(c2ccc(Nc3nc(N)c(C(=O)c4ccc(F)cc4)s3)cc2)CC1` [Example 86, {4-Amino-2-[4-(4-dimethylamino-piperidin-1-yl)-phenylamino]-thiazol-5-yl}-(4-fluoro-phenyl)-methanone], at human cyclin D1-CDK4 (setting [1]), the 50% inhibitory concentration (IC50) turned out to be 114 nM. On the same count and under the same terms, as for `NC(=O)c1cc(C(=O)c2sc(Nc3ccc(N4CCC(N5CCCC5)CC4)cc3)nc2N)ccc1O` [Example 94, 5-{4-Amino-2-[4-(4-pyrrolidin-1-yl-piperidin-1-yl)-phenylamino]-thiazole-5-carbonyl}-2-hydroxy-benzamide], the figure is 390 nM. On to `Nc1nc(Nc2ccc(N3CCC(N4CCOCC4)CC3)cc2)sc1C(=O)c1ccc2c(c1)OCO2` [Example 101, {4-Amino-2-[4-(4-morpholin-4-yl-piperidin-1-yl)-phenylamino]-thiazol-5-yl}-benzo[1,3]dioxol-5-yl-methanone], for which the IC50 came out at 580 nM on human cyclin B-CDK1 and 25 nM on human cyclin D1-CDK4 (setting [1]). `Nc1nc(Nc2ccc(N3CCC(N4CCCCC4)CC3)cc2)sc1C(=O)c1ccc(F)cc1` [Example 61, [4-Amino-2-(4-[1,4′]bipiperidinyl-1′-yl-phenylamino)-thiazol-5-yl]-(4-fluoro-phenyl)-methanone]: the IC50 on human cyclin D1-CDK4 (setting [1]) was determined as 71 nM.

With `N#Cc1ccc(C(=O)c2sc(Nc3ccc(N4CCC(N5CCCC5)CC4)cc3)nc2N)cc1` [Example 54, 4-{4-Amino-2-[4-(4-pyrrolidin-1-yl-piperidin-1-yl)-phenylamino]-thiazole-5-carbonyl}-benzonitrile], the 50% inhibitory concentration (IC50) on human cyclin D1-CDK4 (setting [1]) was found to be 212 nM. Turning to `COc1ccc(C(=O)c2sc(Nc3ccc(N4CCC(N5CCOCC5)CC4)cc3)nc2N)cc1F` [Example 100, {4-Amino-2-[4-(4-morpholin-4-yl-piperidin-1-yl)-phenylamino]-thiazol-5-yl}-(3-fluoro-4-methoxy-phenyl)-methanone], the IC50 amounted to 4170 nM at human cyclin B-CDK1 and 90 nM against human cyclin D1-CDK4. Consider `Nc1nc(Nc2ccc(N3CCC(N4CCCC4)CC3)cc2)sc1C(=O)c1ccc([N+](=O)[O-])cc1` [Example 53, {4-Amino-2-[4-(4-pyrrolidin-1-yl-piperidin-1-yl)-phenylamino]-thiazol-5-yl}-(4-nitro-phenyl)-methanone], for which the half-maximal inhibitory concentration (IC50) at human cyclin D1-CDK4 (setting [1]) was 96 nM. Consider `CN(C)C1CCN(c2ccc(Nc3nc(N)c(C(=O)c4ccc(O)c(C(N)=O)c4)s3)cc2)CC1` [Example 93, 5-{4-Amino-2-[4-(4-dimethylamino-piperidin-1-yl)-phenylamino]-thiazole-5-carbonyl}-2-hydroxy-benzamide], for which the IC50 on human cyclin D1-CDK4 (setting [1]) came to 677 nM. For `Nc1nc(Nc2ccc(N3CCC(N4CCCCC4)CC3)cc2)sc1C(=O)c1ccc(Cl)c(Cl)c1` [Example 60, [4-Amino-2-(4-[1,4′]bipiperidinyl-1′-yl-phenylamino)-thiazol-5-yl]-(3,4-dichloro-phenyl)-methanone], the concentration for half-maximal inhibition (IC50) came out at 5770 nM against human cyclin B-CDK1 and 90 nM at human cyclin D1-CDK4 (setting [1]). Regarding `N#Cc1ccc(C(=O)c2sc(Nc3ccc(N4CCC(N5CCCCC5)CC4)cc3)nc2N)cc1` [Example 55, 4-[4-Amino-2-(4-[1,4′]bipiperidinyl-1′-yl-phenylamino)-thiazole-5-carbonyl]-benzonitrile], at human cyclin D1-CDK4 (setting [1]), the IC50 is 370 nM. On to `Nc1nc(Nc2ccc(N3CCC(N4CCCC4)CC3)cc2)sc1C(=O)c1cc(F)cc(F)c1` [Example 66, {4-Amino-2-[4-(4-pyrrolidin-1-yl-piperidin-1-yl)-phenylamino]-thiazol-5-yl}-(3,5-difluoro-phenyl)-methanone], for which the IC50 on human cyclin B-CDK1 amounted to 4020 nM; on human cyclin D1-CDK4 (setting [1]), 76 nM.

Consider `CN(C)C1CCN(c2ccc(Nc3nc(N)c(C(=O)c4ccc([N+](=O)[O-])cc4)s3)cc2)CC1` [Example 48, {4-Amino-2-[4-(4-dimethylamino-piperidin-1-yl)-phenylamino]-thiazol-5-yl}-(4-nitro-phenyl)-methanone], for which, at human cyclin D1-CDK4 (setting [1]), the IC50 was determined as 74 nM. For the compound `Nc1nc(Nc2ccc(N3CCC(N4CCCCC4)CC3)cc2)sc1C(=O)c1ccc([N+](=O)[O-])cc1` [Example 56, [4-Amino-2-(4-[1,4′]bipiperidinyl-1′-yl-phenylamino)-thiazol-5-yl]-(4-nitro-phenyl)-methanone], the IC50 against human cyclin B-CDK1 was 4770 nM; on human cyclin D1-CDK4 (setting [1]), 160 nM.

For the compound `Nc1nc(Nc2ccc(N3CCC(N4CCCC4)CC3)cc2)sc1C(=O)c1ccc(Cl)cc1` [Example 67, {4-Amino-2-[4-(4-pyrrolidin-1-yl-piperidin-1-yl)-phenylamino]-thiazol-5-yl}-(4-chloro-phenyl)-methanone], the IC50 on human cyclin D1-CDK4 (setting [1]) came to 170 nM. On the same count and under the same terms, as for `Nc1nc(Nc2ccc(N3CCC(N4CCCC(O)C4)CC3)cc2)sc1C(=O)c1ccc(F)cc1` (centres unmarked) [Example 77, {4-Amino-2-[4-(3-hydroxy-[1,4′]bipiperidinyl-1′-yl)-phenylamino]-thiazol-5-yl}-(4-fluoro-phenyl)-methanone], the figure is 111 nM; as for `N#Cc1ccc(C(=O)c2sc(Nc3ccc(N4CCC(N5CCCC(O)C5)CC4)cc3)nc2N)cc1` (centres unmarked) [Example 51, 4-{4-Amino-2-[4-(3-hydroxy-[1,4′]bipiperidinyl-1′-yl)-phenylamino]-thiazole-5-carbonyl}-benzonitrile], 230 nM; as for `Nc1nc(Nc2ccc(N3CCC(N4CCCC(O)C4)CC3)cc2)sc1C(=O)c1ccc(Cl)cc1` (centres unmarked) [Example 74, {4-Amino-2-[4-(3-hydroxy-[1,4′]bipiperidinyl-1′-yl)-phenylamino]-thiazol-5-yl}-(4-chloro-phenyl)-methanone], 62 nM. Consider `Nc1nc(Nc2ccc(N3CCC(N4CCCCC4)CC3)cc2)sc1C(=O)c1ccc(Cl)cc1` [Example 58, [4-Amino-2-(4-[1,4′]bipiperidinyl-1′-yl-phenylamino)-thiazol-5-yl]-(4-chloro-phenyl)-methanone], for which, on human cyclin D1-CDK4 (setting [1]), the IC50 is 45 nM. Still for that read-out and setting: as for `CN(C)C1CCN(c2ccc(Nc3nc(N)c(C(=O)c4ccc(C#N)cc4)s3)cc2)CC1` [Example 47, 4-{4-Amino-2-[4-(4-dimethylamino-piperidin-1-yl)-phenylamino]-thiazole-5-carbonyl}-benzonitrile], the figure is 186 nM. The same measure, in the same setting: as for `Nc1nc(Nc2ccc(N3CCC(N4CCCC(O)C4)CC3)cc2)sc1C(=O)c1ccc(C(=O)O)cc1` (centres unmarked) [Example 79, 4-{4-Amino-2-[4-(3-hydroxy-[1,4′]bipiperidinyl-1′-yl)-phenylamino]-thiazole-5-carbonyl}-benzoic acid], the figure is 400 nM; as for `CN(C)C1CCN(c2ccc(Nc3nc(N)c(C(=O)c4ccc(Cl)cc4)s3)cc2)CC1` [Example 83, {4-Amino-2-[4-(4-dimethylamino-piperidin-1-yl)-phenylamino]-thiazol-5-yl}-(4-chloro-phenyl)-methanone], 132 nM.

Regarding `Nc1nc(Nc2ccc(N3CCC(N4CCCC(O)C4)CC3)cc2)sc1C(=O)c1ccc([N+](=O)[O-])cc1` (centres unmarked) [Example 52, {4-Amino-2-[4-(3-hydroxy-[1,4′]bipiperidinyl-1′-yl)-phenylamino]-thiazol-5-yl}-(4-nitro-phenyl)-methanone], the 50% inhibitory concentration (IC50) at human cyclin D1-CDK4 (setting [1]) was found to be 71 nM.

As for `Nc1nc(Nc2ccc(N3CCC(N4CCCC4)CC3)cc2)sc1C(=O)c1ccc(F)cc1` [Example 70, {4-Amino-2-[4-(4-pyrrolidin-1-yl-piperidin-1-yl)-phenylamino]-thiazol-5-yl}-(4-fluoro-phenyl)-methanone], the 50% inhibitory concentration (IC50) at human cyclin D1-CDK4 (setting [1]) is 186 nM.
